The results in this text go back to the SangsterLogP compilation.

This series in a line: method code SF, from Hansch, C. & Leo, A. (1987). Log P database [Dataset]. Pomona College Medicinal Chemistry Project.

SMILES strings stand for the structures.

As for `CCCCC1=Nc2ccc(Cl)cc2S(=O)(=O)N1`, the log partition coefficient (logP) (in general, the decadic logarithm of the partition coefficient of the neutral form, usually between octanol and water) turned out to be 2.52.
Same read-out and setting: to `CC(=O)Oc1ccccc1C(C)C` belongs 2.78.
As to `Cc1c(N2CCCCC2)c(=O)n(-c2ccccc2)c(=O)n1C`, the pH-dependent lipophilicity (logD) – broadly, lipophilicity at a set pH, counting ionised and neutral species – (pH 7.4) stood at 2.76.
Take `COc1cccc(OC(=O)N(C)C)c1`: the log partition coefficient (logP) is 1.6.
Take `Oc1ccnc2cc(C(F)(F)F)ccc12`: the logP was 2.05.
The same measure, in the same setting: to `O=S1(=O)NC(Cc2ccccc2)=Nc2ccccc21` belongs 1.89; to `CC1(C)O[C@@H]2C[C@H]3[C@@H]4C[C@H](F)C5=CC(=O)C=C[C@]5(C)[C@@]4(F)[C@@H](O)C[C@]3(C)[C@]2(C(=O)CO)O1`, 2.48.
Regarding `c1cscn1`, the logP was determined as 0.44.
In turn, `CCOP(=S)(OCC)Oc1ccc(SC)c(Cl)c1` yielded a log partition coefficient (logP) of 5.06.
Same read-out and setting: to `CC(C)(C)[N+]([O-])=NC#N` belongs 1.4; to `Nc1nc(O)c2nc[nH]c2n1`, -0.91.
Where the note is “pH 13.0”, `CCOc1cc(Cc2cnc(N)nc2N)cc(OCC)c1` returned a logD of 2.52.
`C#CCN(C)/N=N/c1nc[nH]c1C(N)=O`: the pH-dependent lipophilicity (logD) (pH 7.4) was found to be 0.33.
`FC(F)(F)C(F)(F)c1ccccc1`: the logP is 3.36.
On to `C=CCn1c(=O)c(N(C)C)c(C)n(-c2ccccc2)c1=O`, for which, for the setting “pH 7.4”, the logD is 1.98.
In turn, `c1cocn1` displayed a lipophilicity (logP) of 0.12.
The compound `Cc1cc(C(=O)NNCc2ccccc2)no1` yielded a log distribution coefficient (logD) (pH 7.4) of 1.49.
For `O=C(O)c1ncccc1O`, the logD (pH 2.0) was -1.27.
In turn, `CC(=O)Oc1ccccc1C` came in with a log partition coefficient (logP) of 1.93.
With `Cc1c(C2(c3cc(C(C)C)c(O)c(Br)c3C)OS(=O)(=O)c3ccccc32)cc(C(C)C)c(O)c1Br`, the logP amounted to 2.78.
Turning to `O=C1CCCN1CCOc1ccc([N+](=O)[O-])cc1`, the lipophilicity (logP) amounted to 1.33.
In the case of `CN1CC(C)(C)C(=O)c2ccccc21`, where the note is “pH 7.0”, the logD was determined as 2.72.
Compound `c1cn[nH]c1` yielded a logP of 0.13.
Same read-out and setting: to `c1ccc(N2CCOCC2)cc1` belongs 1.36.
Same read-out and setting: as for `Cc1cccc([N+]([O-])=NC#N)c1`, the figure is 2.49.
On the same count and under the same terms, as for `O=C(CNC(=O)c1ccccc1)Oc1ccccc1`, the figure is 2.31; as for `O=C1OC(O)c2ccccc21` (stereo not given), 0.57.
`CCOP(=S)(OCC)Oc1ccc(SC)cc1C` gave a log partition coefficient (logP) of 4.16.
For the compound `N=c1ccccn1O`, the logD (pH 7.4) was -0.87.
The compound `COCC(=O)Nc1ccc(Cl)c(Cl)c1` displayed a log partition coefficient (logP) of 2.77.
Same read-out and setting: as for `O=C(Cc1ccccc1)c1ccccc1`, the figure is 3.18.
Under “pH 6.0”, `Cc1cc(N(C)S(=O)(=O)c2ccc(N)cc2)no1` displayed a logD of 1.75.
With `C#CC(C)(C)O`, the lipophilicity (logP) was 0.28.
Same read-out and setting: as for `Nc1ncco1`, the figure is -0.18; as for `NC(=O)CI`, -0.19; as for `CCOP(=S)(OCC)N1C(=O)c2ccccc2C1=O`, 3.48.
On to `O=C(N[C@H](CO)[C@H](O)c1ccc(-c2ccccn2)cc1)C(F)(F)F`, for which the log partition coefficient (logP) is 1.31.
`O=S1(=O)NC(C2CC=CC2)=Nc2ccccc21` displayed a log partition coefficient (logP) of 1.53.
Still for that read-out and setting: as for `CC[N+](=O)[O-]`, the figure is 0.18; as for `CC(C)(C)c1ccccc1OCC(=O)O`, 3.33; as for `CN(C)C(=O)Cc1ccsc1`, 0.65.
`CC(C)(Cc1ccccc1)NC(=O)N(CCCl)N=O` registered a logP of 3.73.
With `Cn1ccc(=O)cc1`, the logP was -1.22.
On the same count and under the same terms, as for `Cn1nnnc1SCc1ccccc1`, the figure is 1.63.
`CCn1c(C)c(N(C)C)c(=O)n(-c2ccccc2)c1=O` yielded a pH-dependent lipophilicity (logD) (pH 7.4) of 1.8.
For the compound `CC(=O)OCOC(=O)C1=C(CSC2(C)N=NN=N2)CSC2C(NC(=O)C(O)c3ccccc3)C(=O)N12` (stereo not given), for the setting “pH 6.8”, the log distribution coefficient (logD) is 0.75.
Regarding `CC(=O)OC[C@]12CCC(C)=C[C@H]1O[C@@H]1[C@H](O)[C@@H](OC(C)=O)[C@@]2(C)[C@]12CO2`, the logD (pH 7.4) was found to be 0.91.
In turn, `COc1ccc(C(N)=O)cc1` showed a log partition coefficient (logP) of 0.86.
`CCCOCCC` displayed a logP of 2.03.
Compound `CN(C)c1cnnc(N(C)C)c1` displayed a logP of 0.84.
Compound `N#CN=[N+]([O-])c1cccc(C(F)(F)F)c1` registered a logP of 2.52.
`COP(=O)(CC(C)=O)OC` had a logP of 0.86.
As to `O=Cc1ccc([N+](=O)[O-])cc1`, for the setting “pH 7.0”, the logD turned out to be 1.56.
Take `Cn1c(=O)cnc2ccccc21`: the logP came to 0.79.
Still for that read-out and setting: to `CCOC(=O)C(=Cc1cccc(OCC)c1)C(C)=O` belongs 2.71; to `C=CCO`, 0.17; to `CNC(=O)Oc1cccc(Cl)c1Cl`, 2.48.
The same measure, in the same setting: to `NC(=O)COc1ccccc1` belongs 0.76; to `CN(Cc1ccc(C#N)cc1)/N=N/c1ccc(C(=O)O)cc1`, 3.6; to `CN(C)/N=N/c1cccc(Cl)c1`, 3.44.
`O=C(O)Cc1c[nH]c2ccccc12` had a logP of 1.41.
On to `COc1cc(S(C)=O)ccc1-c1nc2ccccc2[nH]1` (stereo not given), for which, under “pH 8.0”, the logD worked out at 1.17.
Consider `CCOP(=S)(OCC)Oc1ccc(SC)cc1Cl`, for which the logP came out at 4.4.
Consider `NC(=S)NN=Cc1cccc(O)c1`, for which the lipophilicity (logP) was 1.61.
Compound `CCCC(C(=O)OCCN(CC)CC)(c1ccccc1)c1ccccc1` showed a logP of 4.65.
In the case of `CCn1c(=O)c(N(C)C)c(C)n(-c2ccccc2)c1=O`, the log distribution coefficient (logD) (pH 7.4) was determined as 2.29.
Under “pH 7.4”, `Cc1c(N(C)C)c(=O)n(-c2ccccc2)c(=O)n1CCO` gave a logD of 0.85.
Consider `CCC(=O)OCCOc1ccc(C=NO)cc1OC`, for which the logP is 1.52.
Still for that read-out and setting: to `CSC(=O)Nc1ccccc1` belongs 2.4.
The compound `CCCOC=O` showed a logP of 0.83.
In turn, `O=C(C=Cc1ccco1)c1ccco1` showed a log partition coefficient (logP) of 2.34.
On to `O=[N+]([O-])c1ccc(C(F)(F)F)cc1`, for which the logP came out at 2.55.
Take `CN(C)C=CCCc1cccnc1`: the log distribution coefficient (logD) (pH 11.0) came out at 1.68.
The compound `CC(=O)OC1CCCC(NC(=O)N(CCF)N=O)C1` (stereo not given) gave a logP of 1.33.
Regarding `CC(=O)Oc1cccc(Cl)c1`, the logP worked out at 2.32.
Still for that read-out and setting: to `c1ccc2cnncc2c1` belongs 0.57; to `COc1cc(OC)cc(OC(=O)CNC(=O)c2ccccc2)c1`, 2.69.
The compound `COc1cc2c(c(OC)c1OC)-c1ccc(SC)c(=O)cc1[C@@H](N[C@@H]1O[C@H](CO)[C@@H](O)[C@H](O)[C@H]1O)CC2` registered a logD (pH 7.4) of 1.25.
In turn, `CC(C)C#CN(C)C(C)C` yielded a logD (pH 9.2) of 2.29.
`NC(=O)NCc1ccccc1` displayed a logP of 0.73.
As for `CCOP(=O)(OCC)Oc1ccc(SC)cc1Cl`, the logP is 3.05.
Consider `O=C(Cc1ccccc1)Nc1ccc(Cl)c(Cl)c1`, for which the logP amounted to 4.47.
The same measure, in the same setting: as for `NC(=O)CF`, the figure is -1.05; as for `CC(=O)Nc1ccc(S(=O)(=O)F)cc1`, 2.17.
Same read-out and setting: as for `CN(C)/N=N/c1ccccc1C(=O)NCC#N`, the figure is 1.79; as for `c1nnn[nH]1`, -0.6; as for `CCSC(=Cc1ccccc1)C(=O)NC(C)CC` (stereo not given), 3.4.
Under “pH 7.4”, `O=c1[nH]c(=O)n(C2CCCO2)cc1F` (stereo not given) had a logD of -0.27.
Compound `CCCCC1OC(=O)c2cc(N)ccc21` (stereo not given) gave a logP of 2.86.
The same measure, in the same setting: as for `FC(F)(F)Sc1ccccc1`, the figure is 3.57; as for `O=C(C(=O)c1ccccc1)c1ccccc1`, 3.38.
Still for that read-out and setting: as for `CCC(=Cc1ccccc1)[N+](=O)[O-]`, the figure is 2.86; as for `O=C1CCN(c2ccccc2)N1`, 0.89.
For the compound `Cc1ccc(N2C(N)=NC(N)=NC2(C)C)cc1`, the logD (pH 13.0) worked out at 0.85.
`OC12CC3CC(CC(C3)C1)C2` gave a logP of 2.14.
